Laboratory results as given in article PMC6273767, “Comparative Studies of Interactions between Fluorodihydroquinazolin Derivatives and Human Serum Albumin with Fluorescence Spectroscopy” (Molecules, 2016).

biological target: T1, human serum albumin (HSA) (Homo sapiens, UniProt P02768); experiment: tryptophan fluorescence quenching, modified Stern-Volmer; format: binding; settings: 298 K, pH 7.4, 0.1 M Tris, 0.1 M NaCl, 1 µM HSA, excitation 280 nm; mainly site II (subdomain IIIA)
T1 construct: gene ALB; mature serum albumin, 585 residues (signal and propeptide removed)
From the text: tryptophan fluorescence quenching, modified Stern-Volmer on human serum albumin (HSA)

T1 sequence (P02768 25-609): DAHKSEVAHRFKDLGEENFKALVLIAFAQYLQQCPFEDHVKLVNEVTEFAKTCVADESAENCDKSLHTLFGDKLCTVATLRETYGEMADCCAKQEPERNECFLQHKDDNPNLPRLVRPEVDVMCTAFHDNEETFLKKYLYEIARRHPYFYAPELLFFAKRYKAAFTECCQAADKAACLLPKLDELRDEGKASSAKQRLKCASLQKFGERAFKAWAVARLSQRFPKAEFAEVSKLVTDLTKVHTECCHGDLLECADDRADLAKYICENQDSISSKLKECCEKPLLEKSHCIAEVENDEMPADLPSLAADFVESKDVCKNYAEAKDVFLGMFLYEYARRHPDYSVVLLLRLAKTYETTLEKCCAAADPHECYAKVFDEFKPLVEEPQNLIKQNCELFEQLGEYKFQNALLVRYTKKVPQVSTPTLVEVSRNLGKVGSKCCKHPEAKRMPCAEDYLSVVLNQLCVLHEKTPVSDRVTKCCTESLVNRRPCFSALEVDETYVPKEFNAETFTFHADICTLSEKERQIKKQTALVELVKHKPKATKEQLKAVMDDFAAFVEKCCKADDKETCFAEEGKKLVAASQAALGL

| SMILES | Ka (×10^4 M^-1) |
| --- | --- |
| CC(C)(C)CC(=O)N1c2ccc(Cl)cc2C(=O)N(N=Cc2ccccc2)C1c1ccccc1 (stereo not shown) [3a, 3-(Benzylideneamino)-6-chloro-1-(3,3-dimethylbutanoyl)-2-phenyl-2,3-dihydroquinazolin-4(1H)-one] | 2.16 × 10^4 M^−1 |
| CC(C)(C)CC(=O)N1c2ccc(Cl)cc2C(=O)N(N=Cc2ccc(F)cc2)C1c1ccccc1 (stereo not shown) [3b, 6-Chloro-1-(3,3-dimethylbutanoyl)-3-(4-fluorobenzylideneamino)-2-phenyl-2,3-dihydroquinazolin-4(1H)-one] | 2.33 × 10^4 M^−1 |
| CC(C)(C)CC(=O)N1c2ccc(Cl)cc2C(=O)N(N=Cc2cccc(F)c2)C1c1ccccc1 (stereo not shown) [3c, 6-Chloro-1-(3,3-dimethylbutanoyl)-3-(3-fluorobenzylideneamino)-2-phenyl-2,3-dihydroquinazolin-4(1H)-one] | 2.73 × 10^4 M^−1 |
| CC(C)(C)CC(=O)N1c2ccc(Cl)cc2C(=O)N(N=Cc2ccccc2F)C1c1ccccc1 (stereo not shown) [3d, 6-Chloro-1-(3,3-dimethylbutanoyl)-3-(2-fluorobenzylideneamino)-2-phenyl-2,3-dihydroquinazolin-4(1H)-one] | 2.46 × 10^4 M^−1 |
